Data: patent US20030215517A1, “Process for production of crystals of an adjuvant substance, crystals obtained thereby and pharmaceutical preparations containing them” (priority 2002, published 2003)
Marks after values point to notes of the source that are not given here.

What was measured:
Format in all cases: physicochemical
[1] = Particle size distribution before and after drying (Sympatec HELOS, dry dispersion RODOS)
Experimental: The particle size distribution in Table I was measured with a Sympatec HELOS (H0445), dry dispersion system (RODOS), pressure 2 bar.

[2] = Particle size development during crystallization with wet milling and temperature cycles (Example 1)
Experimental: In a sulfonation flask with a blade mixer and a heating/cooling bath 30 g of lactose monohydrate are dissolved in 100 g of water at 62° C. A rotor-stator dispersing apparatus (Ultra Turrax, T25 basic, with S25N-25F) is operated with a rotation speed of 12000 to 22000 rpm to prepare the solution. Then 300 g of ethanol are added. After 1 to 2 minutes crystallization begins at 25 to 35° C. The Ultra Turrax is operated for an additional 10 minutes and then is shut off.
The starting suspension obtained is heated at 50° C. and subsequently cooled within an interval of 1 hour at 20° C. This procedure is repeated still twice more.

[3] = Moisture content of spray-dried microcrystals (Example 2); conditions: Example 2, microcrystals spray-dried from ethanol suspension
Experimental: (§1) Subsequently the suspension obtained in example 1 is filtered by means of a frit and washed with 100 ml of ethanol. The filter cake is suspended in 300 ml ethanol. The suspension is spray-dried under the following conditions in a laboratory spray-drier with two nozzles (2 mm) (QVF/Yamato):
(§2) Microcrystals are obtained in a separating filter of the spray-drier with the following particle size distribution: […]

[4] = Particle size distribution of spray-dried microcrystals (Example 2); conditions: Example 2, microcrystals spray-dried from ethanol suspension
Experimental: as §1, §2

[5] = Suspension, 7 percent by weight lactose monohydrate in EtOH/water 75/25 (w/w), before drying
[6] = Example 1, 1st Cycle (heated at 50° C., cooled to 20° C. within 1 hour)

In the case of `O.OC[C@H]1O[C@@H](O[C@H]2[C@H](O)[C@@H](O)C(O)O[C@@H]2CO)[C@H](O)[C@@H](O)[C@H]1O` (stereo partly drawn) [lactose monohydrate], the X10 particle diameter ([1]; After spray-drying, dry powder) was 2.25 μm, the X50 particle diameter ([1]; After spray-drying, dry powder) was 6.0 μm and the X100 particle diameter ([1]; After spray-drying, dry powder) was 43 μm. The X10 particle diameter [1, 5] was 2.11*** μm, the X50 particle diameter [1, 5] was 5.9 μm and the X100 particle diameter [1, 5] was 43 μm. The X50 [2, 6] was 5 μm, the X100 [2, 6] was 43 μm and the X50 ([2]; Example 1, 2nd Cycle) was 5.5 μm. It also gave an X100 ([2]; Example 1, 2nd Cycle) of 43 μm, an X50 ([2]; Example 1, 3rd Cycle) of 6 μm and an X100 ([2]; Example 1, 3rd Cycle) of 43 μm. The X50 ([2]; Example 1, Starting Suspension) was 3 μm, the X100 ([2]; Example 1, Starting Suspension) was 30 μm and the Moisture content [3] was 4.5%. For the same molecule, the “Particle size X10” value [4] was 2.5 μm, the “Particle size X50” value [4] was 5.9 μm and the “Particle size X100” value [4] was 43 μm.
